In patent US7659293B2, “α-Amino-N-hydroxy-acetamide derivatives” (Novartis AG, priority 2001, dated 2010):
Structures can show the parent of a compound that is named as a salt.

Biological target: T1, MMP2 (gelatinase A) (Homo sapiens, UniProt P08253)
T1 construct: made in house; host or cells: baculovirus (pFAST BAC 1) in Tn insect cells, secreted
T1 sequence (P08253 110-660): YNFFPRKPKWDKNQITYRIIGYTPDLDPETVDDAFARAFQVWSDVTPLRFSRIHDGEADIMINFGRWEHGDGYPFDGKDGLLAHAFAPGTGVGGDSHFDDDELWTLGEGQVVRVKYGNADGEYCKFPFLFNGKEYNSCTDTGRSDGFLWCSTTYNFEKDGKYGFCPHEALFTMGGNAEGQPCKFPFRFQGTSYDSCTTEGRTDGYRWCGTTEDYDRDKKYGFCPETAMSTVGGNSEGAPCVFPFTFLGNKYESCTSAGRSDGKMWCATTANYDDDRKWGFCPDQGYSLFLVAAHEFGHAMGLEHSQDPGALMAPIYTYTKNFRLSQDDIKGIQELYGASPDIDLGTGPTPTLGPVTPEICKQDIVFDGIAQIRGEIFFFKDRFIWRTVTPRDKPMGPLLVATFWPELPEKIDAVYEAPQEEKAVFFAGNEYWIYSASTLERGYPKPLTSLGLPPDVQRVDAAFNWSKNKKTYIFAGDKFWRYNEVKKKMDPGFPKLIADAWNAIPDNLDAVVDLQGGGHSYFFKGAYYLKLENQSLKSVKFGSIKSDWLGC
Assay: MMP2 (gelatinase A) fluorogenic substrate inhibition assay
Type: biochemical
Details: mean ± SEM of three independent experiments
Protocol: The inhibitory activities of compounds of formula I on MT1-MMP, MMP1 (collagenase 1) and MMP2 (gelatinase A) can be determined as follows:
Stock solutions of substrate (MCA-Pro-Leu-Gly-Leu-Dpa-Ala-Arg-NH2 (SEQ ID NO: 1), C. G. Knight, et al, FEBS lett., 296, 263-266, (1992)), are prepared in 100% DMSO at a concentration 1.0 mM.
Stock solutions of inhibitors are prepared in 100% DMSO. The inhibitor is diluted into the assays from a solution in 100% DMSO, and controls substitute an equal volume of DMSO so that the final DMSO concentration from inhibitor and substrate dilutions in all assays is 6.0%. Assays are performed in assay buffer (150 mM NaCl, 10 mM CaCl2, 50 mM Tris-Cl pH7.5, 0.05% Brij-35) containing 6.0% DMSO once the substrate and inhibitor are diluted into it. The substrate concentration used in the assays is […]. The test is carried out at 37° C. The fluorescence changes are monitored using an excitation wavelength of 320 nm and an emission wavelength of […]. The reaction mixture is added in duplicate to appropriate wells of a 96 well microfluor plate. The reaction mixture is preincubated with the inhibitor for 30 min, the reaction is started by the addition of MMP enzyme and the fluorescence intensity is measured for 10 min. A time point that is on a linear part of the curve is chosen to determine the activity. […]

`CN(C)c1ccc(CN(CC(=O)NO)S(=O)(=O)c2ccc(OCC3CC3)cc2)cc1` [Example 2, 2-[(4-Cyclopropylmethoxy-benzenesulfonyl)-(4-dimethylamino-benzyl-amino]-N-hydroxy-acetamide HCl salt] showed an IC50 of 3.29 ± 0.49 nM.
